Experimental data taken from patent US20260226069A1, “GCN2 AND PERK KINASE MODULATORS AND METHODS OF USE THEREOF” (Deciphera Pharmaceuticals, LLC, priority 2023, published 2026).

Assays:
[1] = system: ATF4 in Thapsigargin stimulated CCRF-CEM cells; assay: CCRF-CEM TG ATF4 ELISA, phenotypic assay for cellular inhibition of PERK preactivated by thapsigargin; format: cell-based; conditions: Homo sapiens, 3 h, compound three hours then 1 μM thapsigargin for an additional hour
Procedure: CCRF-CEM TG ATF4 ELISA, a Phenotypic Assay for Cellular Inhibition of PERK Preactivated by Thapsigargin (TG)
CCRF-CEM leukemia cells (catalog #CCL-116) were obtained from the American Type Culture Collection (ATTC, Manassas, VA). Briefly, cells were grown in RPMI-1640 medium supplemented with 10% heat-inactivated fetal bovine serum (Invitrogen, Carlsbad, CA) and 1% Penicillin/Streptomycin/L-Glutamine at 37° C., 5% CO2, and 95% humidity. Cells were expanded until reaching one million cells per mL at which time they were subcultured or harvested for assay use. One million five hundred thousand cells per well in 1 mL complete growth medium were dispensed into 12-well plates and incubated overnight. A serial dilution of test compound was added and cells were incubated at 37° C., 5% CO2, and 95% for three hours, then 1 μM thapsigargin was added and cells were incubated for an additional hour at 37° C., 5% CO2, and 95%. Cells were lysed then ATF4 levels were measured using an ELISA assay (Proteintech, Rosemont, IL). Absorbance was measured at 450 nm and 544 nM using a Synergy2 or equivalent reader (Biotek, Winooski VT). Data was analyzed using PRISM software (Graphpad, San Diego, CA) to calculate IC50 values.

[2] = molecular target: T1, PERK kinase (Homo sapiens, UniProt Q9NZJ5, A704S); assay: Biochemical assay for PERK (coupled pyruvate kinase/lactate dehydrogenase assay); conditions: 10 nM PERK, 1 mM ATP, reaction rate 2-3 h time frame, 30° C.
T1 construct: GST (with thrombin site LVPRGS); purchased Beryllium
Procedure: Biochemical Assay for PERK
Activity of PERK kinase was determined spectroscopically using a coupled pyruvate kinase/lactate dehydrogenase assay that continuously monitors the ATP hydrolysis-dependent oxidation of NADH (Science, 2000, 289, 1938-1942). Assays were conducted in 384-well plates (100 μL final volume) using 10 nM PERK (from Beryllium), 0.25 mg/mL Myelin Basic Protein substrate, 1.5 units pyruvate kinase, 2.1 units lactate dehydrogenase, 1 mM phosphoenol pyruvate, 0.28 mM NADH and 1 mM ATP in assay buffer (100 mM Tris, pH 7.5, 15 mM MgCl2, 0.5 mM DTT, 0.004% (w/v) BSA, and 0.004% Triton X-100). Inhibition of PERK was measured by adding serial diluted test compound (final assay concentration of 1% DMSO). A decrease in absorption at 340 nm was monitored continuously for 6 hours at 30° C. on a multi-mode microplate reader (BioTek). The reaction rate was calculated using the 2-3 h time frame. The reaction rate at each concentration of compound was converted to percent inhibition using controls (i.e., reaction with no test compound and reaction with a known inhibitor) and IC50 values were calculated using software routines in Prism (GraphPad software).

[3] = system: ATF4 in H929 Multiple Myeloma cells; assay: H929 ATF4 ELISA assay; format: cell-based; conditions: four hours, fold stimulation of cellular ATF4 relative to vehicle treated control
Procedure: H929 multiple myeloma cells (catalog #CRL-9068) were obtained from the American Type Culture Collection (ATTC, Manassas, VA). Briefly, cells were grown in RPMI-1640 medium supplemented with 20% heat-inactivated fetal bovine serum (catalog #A3840002, ThermoFisher Scientific, Waltham, MA), 1% Penicillin/Streptomycin/L-Glutamine (catalog #10378016, ThermoFisher Scientific, Waltham, MA), and 0.05 mM 2-mercaptoethanol (catalog #21985-023, ThermoFisher Scientific, Waltham, MA) at 37° C., 5% CO2, and 95% humidity. Cells were expanded until reaching one million five hundred thousand cells per mL at which time they were sub-cultured or harvested for assay use. One million five hundred thousand cells per well in 1 mL complete growth medium were dispensed into 12-well plates and incubated overnight. A serial dilution of test compound was added, and cells were incubated at 37° C., 5% CO2, and 95% for four hours. Cells were lysed then ATF4 levels were measured using an ELISA assay (Proteintech, Rosemont, IL). Absorbance is measured at 450 nm and 544 nM using a Synergy2 or equivalent reader (Biotek, Winooski VT). Data were analyzed using PRISM software (Graphpad, San Diego, CA) to calculate fold stimulation of cellular ATF4 relative to vehicle treated control.

[4] = system: ASNase treated CCRF-CEM cells; assay: CCRF-CEM ASNase cell proliferation assay, phenotypic assay for cellular inhibition of GCN2; format: cell-based; conditions: Homo sapiens, 1 mU/mL ASNase, 72 h, resazurin
Procedure: CCRF-CEM ASNase Cell Proliferation Assay, a Phenotypic Assay for Cellular Inhibition of GCN2.
CCRF-CEM leukemia cells (catalog #CCL-116) were obtained from the American Type Culture Collect (ATTC, Manassas, VA). Cells were grown in RPMI-1640 medium supplemented with 10% heat-inactivated fetal bovine serum (Invitrogen, Carlsbad, CA) and 1% Penicillin/Streptomycin/L-Glutamine at 37° C., 5% CO2, and 95% humidity. Cells were expanded until reaching one million cells per mL at which time they are subcultured or harvested for assay use. Ten thousand cells per well in 200 μL RPMI-1640 supplemented with 10% heat-inactivated fetal bovine serum and 1% Penicillin/Streptomycin were dispensed into a 96-well black clear bottom plate. A serial dilution of test compound and 1 mU/mL ASNase was added in triplicate and plates were incubated for 72 h at 37° C., 5% CO2, and 95% humidity. At the end of the incubation, 40 μL of a […] solution of resazurin (Sigma, St. Louis, MO) in PBS was added to each well of the plate and plates were incubated for an additional 6 h at 37° C., 5% CO2, and 95% humidity. Plates were read on a Synergy2 or equivalent reader (Biotek, Winooski VT) using an excitation of 540 nm and an emission of 600 nm. Data was analyzed using GraphPad Prism software (GraphPad, San Diego, CA) to calculate IC50 values.

[5] = molecular target: T2, GCN2 kinase (Homo sapiens, UniProt Q9P2K8); assay: Biochemical assay for GCN2 (TR-FRET kinase activity assay); conditions: 2 nM GCN2, 1 mM ATP, 3-hour incubation
T2 construct: G556E with a; purchased Carna Biosciences
Procedure: Biochemical assay for GCN2
Activity of GCN2 kinase was determined using a TR-FRET kinase activity assay (e.g., Analytical Biochemistry, 2006, 356, 108-116). Assays were conducted in 384-well plates (13 μL assay volume) using 2 nM GCN2 (Carna Biosciences), 130 nM GFP-EIf2α (Invitrogen), 0.2 mg/mL E. coli tRNA (sigma) and 1 mM ATP in kinase buffer (Invitrogen). Inhibition of GCN2 was measured by adding serial diluted test compound (final assay concentration of 0.5% DMSO) followed by a 3-hour incubation. Tb-peIF2α (pSer52) antibody (Invitrogen) (2 nM final assay concentration) in kinase buffer containing EDTA (final assay concentration of 20 mM) was added. After a 60 min incubation at room temperature, TR-FRET was monitored using an excitation wavelength of 340 nm and emission wavelengths of 490 nm and 520 nm. The emission ratio (520/490) at each compound concentration of was converted to percent inhibition using controls (i.e., reaction with no test compound and reaction with a known inhibitor) and IC50 values were calculated by fitting a four-parameter sigmoidal curve to the data using Prism (GraphPad software).

T1 sequence (Q9NZJ5 with tags, fused parts or gaps A704S): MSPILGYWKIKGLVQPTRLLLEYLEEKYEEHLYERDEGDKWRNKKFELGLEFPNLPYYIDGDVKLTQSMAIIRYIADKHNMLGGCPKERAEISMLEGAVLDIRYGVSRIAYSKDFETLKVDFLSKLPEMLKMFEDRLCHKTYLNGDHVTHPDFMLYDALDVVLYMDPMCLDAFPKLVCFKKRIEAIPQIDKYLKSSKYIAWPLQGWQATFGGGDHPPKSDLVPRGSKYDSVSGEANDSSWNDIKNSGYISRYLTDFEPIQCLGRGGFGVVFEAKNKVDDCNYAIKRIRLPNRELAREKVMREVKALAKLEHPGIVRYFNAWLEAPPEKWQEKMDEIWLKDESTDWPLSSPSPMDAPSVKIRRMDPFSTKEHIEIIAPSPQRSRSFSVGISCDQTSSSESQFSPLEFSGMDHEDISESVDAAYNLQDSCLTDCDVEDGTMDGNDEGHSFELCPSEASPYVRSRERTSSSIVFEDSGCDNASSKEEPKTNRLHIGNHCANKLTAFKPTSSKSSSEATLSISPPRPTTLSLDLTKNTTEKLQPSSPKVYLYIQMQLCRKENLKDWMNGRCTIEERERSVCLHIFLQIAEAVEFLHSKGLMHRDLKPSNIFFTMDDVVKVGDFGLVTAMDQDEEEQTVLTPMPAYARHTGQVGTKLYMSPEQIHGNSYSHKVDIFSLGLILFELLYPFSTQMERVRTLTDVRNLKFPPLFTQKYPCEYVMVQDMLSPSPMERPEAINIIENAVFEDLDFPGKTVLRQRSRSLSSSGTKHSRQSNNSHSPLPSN

SMILES: COc1ncc(Cl)cc1S(=O)(=O)Nc1cc(F)c(F)c(-c2cn(C)c3ncnc(N)c23)c1 [Example 43]
- IC50 [1]: 1000 to 10000 nM
- IC50 [2]: ≤ 100 nM
- H929 NS ATF4 ELISA [3]: + (an ATF4 stim less than or equal to 5-fold)
- IC50 [4]: 1000 to 10000 nM
- IC50 [5]: 1000 to 10000 nM

SMILES: Cn1cc(-c2cccc(NS(=O)(=O)c3cc(Cl)cc(/C=N\O)c3Cl)c2F)c2c(N)ncnc21 [Example 52, (Z)—N-(3-(4-amino-7-methyl-7H-pyrrolo[2,3-d]pyrimidin-5-yl)-2-fluorophenyl)-2,5-dichloro-3-((hydroxyimino)methyl)benzenesulfonamide]
- IC50 [1]: 100 to 500 nM
- IC50 [2]: ≤ 100 nM
- H929 NS ATF4 ELISA [3]: ++++ (an ATF4 stim greater than 20-fold)
- IC50 [4]: 1000 to 10000 nM
- IC50 [5]: 500 to 1000 nM
